Tests used:
GST-JAK2 = biological target: T1, GST-JAK2 (Homo sapiens, UniProt O60674); assay: JAK2 kinase assay of the general description (alternative method, flash plate); type: biochemical; conditions: 1.0 μM ATP, read-out: IC50 with test in general description (named “alternative method to that given in the examples”) (“flash plate”)
T1 construct: the amino acid domain ASP751-VAL1129 of the JAK2 protein
Experimental: Baculovirus including the amino acid domain ASP751-VAL1129 of the JAK2 protein is obtainable by ProQinase, Freiburg, Germany. The virus is scaled up as following: Virus containing media is collected from the transfected cell culture and used for infection to increase its titer. Virus containing media obtained after two rounds of infection is used for large-scale protein expression. For large-scale protein expression 100 cm^2 round tissue culture plates are seeded with 5×10^7 cells/plate and infected with 1 mL of virus-containing media (approx. 5 MOIs). After 3 days the cells are scraped off the plate and centrifuged at 500 rpm for 5 min. Cell pellets from 10-20, 100 cm^2 plates, are re-suspended in 50 mL of ice-cold lysis buffer (25 mMTris-HCl, pH7.5, 2 mMEDTA, 1% NP-40, 1 mM DTT, 1 mMP MSF). The cells are stirred on ice for 15 min and then centrifuged at 5000 rpms for 20 min. The protein is purified by loading the centrifuged cell lysate onto a 2 mL glutathione-sepharose column and washed three times with 10 mL of 25 mM Tris-HCl, pH 7.5, 2 mM EDTA, 1 mM DTT, 200 mM NaCl. The GST-tagged proteins are then eluted by 10 applications (1 mL each) of 25 mM Tris-HCl, pH 7.5, 10 mM reduced-glutathione, 100 mM NaCl, 1 mM DTT, 10% Glycerol and stored at −70° C.
Cancer Cell; 5: 231-239]. The test compound is dissolved in DMSO (10 mM) and stored at −20° C. Serial dilutions are freshly made in DMSO and are […] concentrated than test solutions (“pre-dilution plates”). They are further diluted with pure water to yield “master plates” containing 3 times concentrated test solutions in 3% DMSO. The final volume of the assay is 30 μL containing 10 μL of test solution (1% DMSO), 10 μL assay mix including the assay components described by Garcia-Echeverria (2004) and in the following section as well as 10 μL enzyme. The pipetting steps can be programmed to be performed either on the MultiPROBE Iix, MultiPROBE IILx or HamiltonSTAR robots in the 96 well format.
The protein kinase assays are carried as described in details by Garcia-Echeverria (see above). The assay for JAK2 is carried out in 96-well plates at ambient temperature for 10 min (filter-biding method) or 30 min (flash plates) in a finial volume of 30 μL including the following components: 300 ng of GST-JAK2, 20 mM Tris-HCl, pH 7.5, 1.0 mM MnCl2, 10 mM MgCl2, 1 mM DTT, 3 μg/mL poly(Glu, Tyr) 4:1, 1% DMSO and 1.0 μM ATP (γ-[^33P]-ATP 0.1 μCi); The assays are terminated by the addition of 20 μl of 125 mM EDTA. The capturing of the phosphorylated peptides by the filter-binding method is performed as following: 40 μL of the reaction mixture are transferred onto Immobilon-PVDF membranes previously soaked for 5 min with methanol, rinsed with water, then soaked for 5 min with 0.5% H3PO4 and mounted on vacuum manifold with disconnected vacuum source. After spotting all samples, vacuum is connected and each well rinsed with 200 μl 0.5% H3PO4. Free membranes are removed and washed 4× on a shaker with 1.0% H3PO4, once with ethanol. Membranes are counted after drying at ambient temperature, mounting in Packard TopCount 96-well frame, and addition of 10 μl/well of Microscint. The plates are eventually sealed and counted in a microplate scintillation counter (TopCount NXT, TopCount NXT HTS, PerkinElmer, Brussels, Belgium).
The assays for the flash plate method is carried out in a total volume of 30 μL at RT in conventional 96-well flash plates. The reaction is stopped after 30 min by the addition of 20 μL of 125 mM EDTA The assay plates are then washed three times with PBS and dried at room temperature. The plates are sealed and counted in a microplate scintillation counter (TopCount NXT, TopCount NXT HTS). IC50 values are calculated by linear regression analysis of the percentage inhibition of the compound either in duplicate, at four concentrations (usually 0.01, 0.1, 1 and 10 μM) or as 8 single point IC50 starting at 10 μM following by 1:3 dilutions.

GST-JAK2(808-1132) = biological target: T2, GST-JAK2(808-1132) (Homo sapiens, UniProt O60674); assay: EPK JAK/TYK-kinase family profiling assay (Caliper mobility shift), JAK2; type: biochemical; conditions: Caliper mobility shift assay of Example 187, 20 μM ATP, read-out: IC50 with Test in present Example
T2 construct: GST-JAK2(808-1132) is purchased from Invitrogen; purchased Invitrogen (Carlsbad, USA) #4288
T2 sequence (O60674 808-1132): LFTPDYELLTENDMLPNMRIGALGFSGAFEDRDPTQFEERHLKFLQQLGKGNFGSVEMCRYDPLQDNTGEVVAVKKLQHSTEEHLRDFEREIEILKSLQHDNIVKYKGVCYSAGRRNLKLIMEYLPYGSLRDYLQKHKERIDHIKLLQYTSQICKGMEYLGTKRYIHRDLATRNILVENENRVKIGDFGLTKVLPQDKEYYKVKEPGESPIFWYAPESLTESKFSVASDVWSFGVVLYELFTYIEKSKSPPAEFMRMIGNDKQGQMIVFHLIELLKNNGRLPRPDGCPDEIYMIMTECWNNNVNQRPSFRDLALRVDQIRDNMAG
Procedure, shortened: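 Caliper mobility-shift assay with the GST-tagged kinase domain and a fluorescently labeled peptide substrate plus ATP, run 60 min at 30° C and then stopped with EDTA buffer. Turnover was taken as the substrate/product ratio. Compounds were tested at eight final concentrations from 10 to 0.003 μM.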

T1 sequence (O60674 751-1129): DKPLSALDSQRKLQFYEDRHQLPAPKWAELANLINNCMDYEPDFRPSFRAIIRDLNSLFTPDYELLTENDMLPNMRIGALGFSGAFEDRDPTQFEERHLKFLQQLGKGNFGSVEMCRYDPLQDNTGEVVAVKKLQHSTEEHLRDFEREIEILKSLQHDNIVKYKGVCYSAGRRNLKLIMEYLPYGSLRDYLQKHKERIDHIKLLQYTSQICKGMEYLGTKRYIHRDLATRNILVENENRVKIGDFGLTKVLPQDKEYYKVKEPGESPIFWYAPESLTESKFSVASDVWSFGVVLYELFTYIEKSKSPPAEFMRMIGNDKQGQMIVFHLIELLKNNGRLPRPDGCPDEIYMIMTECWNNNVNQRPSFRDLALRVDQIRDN

melting point	IC50 (GST-JAK2)	IC50 (GST-JAK2(808-1132))	Compound
222 to 225 °C	–	–	COc1cc(Nc2nc3cccc(-c4ccc(NS(C)(=O)=O)cc4)c3o2)cc(OC)c1OC (hydrate or solvate) [Example 26, N-{4-[2-(3,4,5-Trimethoxy-phenylamino)-benzooxazol-7-yl]-phenyl}-methanesulfonamide]
265 to 270 °C	–	–	COc1cc(Nc2nc3cccc(-c4ccc(NC(C)=O)cc4)c3o2)cc(OC)c1OC (hydrate or solvate) [Example 27, N-{4-[2-(3,4,5-Trimethoxy-phenylamino)-benzooxazol-7-yl]-phenyl}-acetamide]
150 to 156 °C	–	–	COc1cc(Nc2nc3cccc(-c4ccc5[nH]cnc5c4)c3o2)cc(OC)c1OC (hydrate or solvate) [Example 35, [7-(1H-Benzoimidazol-5-yl)-benzooxazol-2-yl]-(3,4,5-trimethoxy-phenyl)-amine]
148 to 151 °C	–	–	COc1cc(Nc2nc3ccnc(-c4ccc(N)cc4)c3o2)cc(OC)c1OC (hydrate or solvate) [Example 36, [4-(4-Amino-phenyl)-oxazolo[5,4-c]pyridin-2-yl]-(3,4,5-trimethoxy-phenyl)-amine]
–	250 nM	66 nM	COc1cc(Nc2nc3cccc(-c4ccc(CN)cc4)c3o2)cc(OC)c1OC [Example 29, [7-(4-Aminomethyl-phenyl)-benzooxazol-2-yl]-(3,4,5-trimethoxy-phenyl)-amine]
–	557 nM	–	COc1ccc(-c2cccc3nc(Nc4cc(OC)c(OC)c(OC)c4)oc23)cc1N [Example 53, [7-(3-Amino-4-methoxy-phenyl)-benzooxazol-2-yl]-(3,4,5-trimethoxy-phenyl)-amine]
–	350 nM	–	COc1cc(Nc2nc3cccc(-c4ccc(N(C)C)cc4)c3o2)cc(OC)c1OC [Example 54, [7-(4-Dimethylamino-phenyl)-benzooxazol-2-yl]-(3,4,5-trimethoxy-phenyl)-amine]
–	160 nM	170 nM	COc1cc(Nc2nc3cccc(-c4ccc(S(N)(=O)=O)cc4)c3o2)cc(OC)c1 [Example 60, 4-[2-(3,5-Dimethoxy-phenylamino)-benzooxazol-7-yl]-benzenesulfonamide]
–	400 nM	120 nM	CNS(=O)(=O)c1ccc(-c2cccc3nc(Nc4ccc(OC)cc4)oc23)cc1 [Example 139, 4-[2-(4-Methoxy-phenylamino)-benzooxazol-7-yl]-N-methyl-benzenesulfonamide]
–	140 nM	3.7 nM	COc1cc(Nc2nc3cccc(-c4ccc(CC(=O)N5CCOCC5)cc4)c3o2)cc(OC)c1OC [Example 140, 1-Morpholin-4-yl-2-{4-[2-(3,4,5-trimethoxy-phenylamino)-benzooxazol-7-yl]-phenyl}-ethanone]
–	220 nM	8.1 nM	COc1cc(Nc2nc3cccc(-c4ccc(C(=O)N5CCOCC5)cc4)c3o2)cc(OC)c1OC [Example 141, Morpholin-4-yl-{4-[2-(3,4,5-trimethoxy-phenylamino)-benzooxazol-7-yl]-phenyl}-methanone]

Continued, compound first:

Compound	melting point	IC50 (GST-JAK2)	IC50 (GST-JAK2(808-1132))
COc1cc(Nc2nc3cccc(-c4ccc(CN)cc4)c3o2)cc(OC)c1OC (hydrate or solvate) [Example 29, [7-(4-Aminomethyl-phenyl)-benzooxazol-2-yl]-(3,4,5-trimethoxy-phenyl)-amine]	208 to 211 °C	–	–
COc1cc(Nc2nc3cccc(-c4ccc(CNC(C)=O)cc4)c3o2)cc(OC)c1OC (hydrate or solvate) [Example 30, N-{4-[2-(3,4,5-Trimethoxy-phenylamino)-benzooxazol-7-yl]-benzyl}-acetamide]	237 to 239 °C	–	–
CNC(=O)c1cc(-c2cccc3nc(Nc4cc(OC)c(OC)c(OC)c4)oc23)cs1 (hydrate or solvate) [Example 34, 4-[2-(3,4,5-Trimethoxy-phenylamino)-benzooxazol-7-yl]-thiophene-2-carboxylic acid methylamide]	260 to 262 °C	–	–
COc1cc(Nc2nc3cccc(-c4ccccc4)c3o2)cc(OC)c1OC [Example 2, (7-Phenyl-benzooxazol-2-yl)-(3,4,5-trimethoxy-phenyl)-amine]	182 to 185 °C	–	–
COc1cc(Nc2nc3cccc(-c4ccc(CNC(C)=O)cc4)c3o2)cc(OC)c1OC [Example 30, N-{4-[2-(3,4,5-Trimethoxy-phenylamino)-benzooxazol-7-yl]-benzyl}-acetamide]	–	41 nM	21 nM
COc1cc(Nc2nc3cccc(-c4ccc(CNS(C)(=O)=O)cc4)c3o2)cc(OC)c1OC [Example 31, N-{4-[2-(3,4,5-Trimethoxy-phenylamino)-benzooxazol-7-yl]-benzyl}-methanesulfonamide]	–	60.5 nM	16.2 nM
COc1cc(Nc2nc3cccc(-c4cccc(NS(C)(=O)=O)c4)c3o2)cc(OC)c1OC [Example 55, N-{3-[2-(3,4,5-Trimethoxy-phenylamino)-benzooxazol-7-yl]-phenyl}-methanesulfonamide]	–	420 nM	–
COCCNC(=O)c1ccc(Nc2nc3cccc(-c4ccc(S(N)(=O)=O)cc4)c3o2)cc1 [Example 56, N-(2-Methoxy-ethyl)-4-[7-(4-sulfamoyl-phenyl)-benzooxazol-2-ylamino]-benzamide]	–	110 nM	51 nM
CN(C)CCNC(=O)c1ccc(Nc2nc3cccc(-c4ccc(S(N)(=O)=O)cc4)c3o2)cc1 [Example 57, N-(2-Dimethylamino-ethyl)-4-[7-(4-sulfamoyl-phenyl)-benzooxazol-2-ylamino]-benzamide]	–	150 nM	37 nM
COc1ccc(Nc2nc3cccc(-c4ccc(S(N)(=O)=O)cc4)c3o2)cc1OC [Example 58, 4-[2-(3,4-Dimethoxy-phenylamino)-benzooxazol-7-yl]-benzenesulfonamide]	–	41.5 nM	37 nM
CNS(=O)(=O)c1ccc(-c2cccc3nc(Nc4ccc(OC)c(OC)c4)oc23)cc1 [Example 59, 4-[2-(3,4-Dimethoxy-phenylamino)-benzooxazol-7-yl]-N-methyl-benzenesulfonamide]	–	41 nM	–
CNC(=O)Cc1ccc(-c2cccc3nc(Nc4cc(OC)c(OC)c(OC)c4)oc23)cc1 [Example 61, N-Methyl-2-{4-[2-(3,4,5-trimethoxy-phenylamino)-benzooxazol-7-yl]-phenyl}-acetamide]	–	87 nM	–
COc1cc(Nc2nc3ccnc(-c4ccc(CNS(C)(=O)=O)cc4)c3o2)cc(OC)c1OC [Example 62, N-{4-[2-(3,4,5-Trimethoxy-phenylamino)-oxazolo[5,4-c]pyridin-4-yl]-benzyl}-methanesulfonamide]	–	230 nM	16 nM
COc1cc(Nc2nc3cccc(-c4ccc(C(=O)N5CCN(C)CC5)cc4)c3o2)cc(OC)c1OC [Example 142, (4-Methyl-piperazin-1-yl)-{4-[2-(3,4,5-trimethoxy-phenylamino)-benzooxazol-7-yl]-phenyl}-methanone]	–	700 nM	58.5 nM

— patent US8629168B2, “Benzoxazoles and oxazolopyridines being useful as janus kinases inhibitors” (priority 2006, dated 2014)
